Literature values, collected in patent US9320746B2, “Method for treating intestinal fibrosis” (Sigmoid Pharma Limited, priority 2013, dated 2016).

Conditions: extensive first-pass elimination; compared with other corticosteroid formulations

Structure (SMILES): CCCC1O[C@@H]2C[C@H]3[C@@H]4CCC5=CC(=O)C=C[C@]5(C)[C@H]4[C@@H](O)C[C@]3(C)[C@]2(C(=O)CO)O1 (stereo partly drawn) [budesonide, 16,17-butylidendioxy-11β,21-dihydroxy-1,4-pregnadien-3,20-dione]
- systemic bioavailability: 10-15%
